# Patent publication US20070141637A1, “Marker for fenestrae” (priority 2004, published 2007)
# Assays:
# Py4.1 cells = assay: Subtractive 2D-gel analysis of plasma membranes, latrunculin-induced versus control cells; format: cell-based, mouse; details: Py4.1 plasma membranes, Progenesis Software
# Method: In one embodiment the method of identifying components of fenestrae comprises the step of Subtractive 2D-gel electrophoresis analysis. Sufficient material was pooled to generate one batch of triplicate gels for vehicle-induced and un-induced Py4.1 cells, and three sets of triplicate gels for untreated, vehicle-induced, and induced bEND5 cells (FIG. 6 and FIG. 13). All gels per cell type were analyzed collectively using ProGenesis® software (Prolific, Inc. Newark, Calif.) to obtain fold differences between the staining intensities of spots in the induced and the uninduced samples and p-values for those differences using the Students t-test (FIG. 7). In the first round of analysis, spots that qualified for one or more of the following criteria were selected: a) fold increase in staining intensity greater than 2 in the induced sample, b) p-value less than 0.05 for any fold increase, c) spot being unique in induced sample. A summary of all the spots selected for mass spectrometry, with their accompanying fold differences and p-values is shown in FIG. 15.
# Methods for inducing fenestrae formation in endothelial cells are described in U.S. Provisional Patent No. 60/627,981, which is hereby incorporated by reference in its entirety. Coverslips and dishes were coated with 1% gelatin (Sigma) solution in PBS for 30 minutes at room temperature. […]
# bEND5 and Py4.1 cells = assay: Western blotting of candidate proteins in plasma membranes of latrunculin-induced versus control cells; format: cell-based, mouse; details: LPM versus CPM, equal amounts of protein
# Method: To confirm the findings of the subtractive proteomic analysis, immunoblotting on the relevant fractions was performed with antibodies to candidate proteins. By comparing equal amounts of protein in the two conditions, change in the protein levels of cofilin, alpha-enolase, radixin, moesin, annexin II, and hnRNP K was evaluated (FIG. 9A, 9B).
# Methods for inducing fenestrae formation in endothelial cells are described in U.S. Provisional Patent No. 60/627,981, which is hereby incorporated by reference in its entirety. Coverslips and dishes were coated with 1% gelatin (Sigma) solution in PBS for 30 minutes at room temperature. Endothelial cells were seeded overnight at a density equivalent to 1.5×10^6 cells per 100 mm dish. Cultures were induced with Cytochalasin B (Sigma) at 10 μM for 2 hours, with Latrunculin A (Molecular Probes) at 2.5 μM for 3 hours, or with a combination of recombinant mouse 75 ng/ml VEGF (R&D systems) for 6-72 hours and 10 μM Cytochalasin B for 2 hours. Cells were processed for biochemistry or morphology immediately after the end of the induction.
# All steps in the procedure were performed on ice or in centrifuges pre-cooled to 4° C. Cells grown on 150 mm dishes were washed twice with PBS containing calcium and magnesium (Invitrogen), and once with coating buffer (20 mM MES, 135 mM NaCl, 0.5 mM CaCl2, 1 mM MgCl2, pH 5.5). […]
smiles,measurement,setting,value
"C/C1=C/C(=O)O[C@@H]2C[C@@H](CC[C@H](C)/C=C\C=C\CC1)O[C@@](O)([C@@H]1CSC(=O)N1)C2 [latrunculin, Latrunculin A]","spot 659 intensity, latrunculin-induced versus control samples",Py4.1 cells,1.772 fold
same,"spot 401 intensity, latrunculin-induced versus control samples",Py4.1 cells; part of a train of spots (phosphorylation states),3.8 fold
same,"enrichment of phosphorylated moesin, hnRNP K, cofilin and alpha-enolase in plasma membranes",bEND5 and Py4.1 cells,Enrichment in induced cells is confirmed
